Assay results reported in ChEMBL document CHEMBL5728435, “Alpha-D-galactoside inhibitors of galectins” (2021).
pKd: −log10 of the molar value.

Key:
Galectin-1 = Galectin-1 (Homo sapiens, UniProt P09382); test: (§1) Fluorescence Anisotropy Assay: Compounds for galectins were determined by a fluorescence anisotropy assay where the compound was used as an inhibitor of the interaction between galectin and a fluorescein tagged saccharide probe.
Galectin-3 = Galectin-3 (Homo sapiens, UniProt P17931); test: as §1
Chain of Galectin-3 (P17931 whole entry): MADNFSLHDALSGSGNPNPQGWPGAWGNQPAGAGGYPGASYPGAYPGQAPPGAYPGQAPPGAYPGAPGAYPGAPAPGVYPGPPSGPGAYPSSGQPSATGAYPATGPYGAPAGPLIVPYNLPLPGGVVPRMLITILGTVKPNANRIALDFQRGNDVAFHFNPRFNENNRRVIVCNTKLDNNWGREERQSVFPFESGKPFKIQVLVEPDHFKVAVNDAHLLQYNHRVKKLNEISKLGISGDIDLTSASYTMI

Chain of Galectin-1 (P09382 whole entry): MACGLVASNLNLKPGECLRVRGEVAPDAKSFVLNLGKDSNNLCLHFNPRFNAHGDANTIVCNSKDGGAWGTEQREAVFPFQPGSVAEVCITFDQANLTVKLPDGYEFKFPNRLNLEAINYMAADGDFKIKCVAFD

## OCC1O[C@H](Sc2cc(Cl)c(F)c(Cl)c2)C(O)[C@@H](n2cc(-c3nccs3)nn2)[C@H]1O (some centres not stated)
Galectin-1
  pKd: 6.55
Galectin-3
  pKd: 5.00
